Measured values as given in patent publication US20220372585A1, “Sensors for Aromatic Compounds and Methods of Making and Using Same” (Washington University, priority 2021, published 2022).
“Also recorded” adds a separate entry of the source. Read-outs that look alike come from different tables or passages of the source.

Columns and labels:
TynA-FeaR system = test: microbe, parasite or virus in culture; settings: for EC50: read-out: KA (half maximal constant); for Fmax / Fmin / n (Hill coefficient): wild-type TynA and FeaR, pCX008, pHJY022
Experimental: (§1) To develop sensors for aromatic amines, the TynA-FeaR system was first characterized in EcN. A sensor plasmid was constructed, which consisted of constitutively expressed TynA and FeaR from E. coli MG1655, and a reporter plasmid, which consisted of GFP under the control of PtynA (see e.g., FIG. 3B). […] Next, the sensitivity and selectivity to different ligands was characterized.
For fluorescence-based quantification, single colonies were transferred to 5 mL LB medium (VWR, Radnor, Pa., USA) in 14 mL round bottom tubes and incubated overnight at 250 rpm and 37° C. Unless otherwise specified, experimental cultures were prepared by diluting overnight cultures 100× into 0.6 mL M9 minimal medium supplemented with 1 mM MgSO4, […]), and 2% w/v glycerol as well as the respective ligands (DA, PEA, Tyra, and Trypta) in 2 mL 96-deep well plates. Cultures were grown for 24 h at 37° C. and 250 rpm. After 5 h and 24 h of incubation, samples were obtained from the cultures for flow cytometry analysis.
(§2) Flow cytometry was performed as previously described. Culture samples were collected and diluted to a final OD600 of ˜0.005-0.01 in 200 mL filtered phosphate-buffered saline supplemented with 2 mg/ml kanamycin in 96-well assay microplates (U-bottom, REF-353910 from BD Biosciences, San Jose, Calif., USA). The fluorescence of the samples was measured using a Millipore Guava EasyCyte High Throughput flow cytometer with a 488 nm excitation laser and 512/18 nm emission filter. Cytometry data was gated by forward and side scatter. FlowJo (TreeStar Inc.) was used to obtain the arithmetic mean of the fluorescence distribution. The averages of the arithmetic means were calculated from three biological replicates. The average fluorescence of the non-fluorescent wild-type cell was subtracted from each sample to obtain the final fluorescence (au) values (Equation 2). To obtain the relative fluorescence in FIG. 6A-FIG. 6C, fluorescence values for each variant were normalized to the fluorescence of the wild-type sensor using Equation 3.
The Hill equation (Equations 4 and 5) was used to fit lines to the fluorescence data. The model was fit to the experimentally collected data by minimizing the root mean square error (RMSE; Equation 6).

FeaR (TynA inactivated) = settings: 0.5 mM, FIG. 3C
Experimental: as §1
For fluorescence-based quantification, single colonies were transferred to 5 mL LB medium (VWR, Radnor, Pa., USA) in 14 mL round bottom tubes and incubated overnight at 250 rpm and 37° C. […]
as §2, with “Culture samples were collected and diluted to a final OD600 of ˜0.005-0.01 in 200 mL filtered phosphate-buffered saline supplemented with 2 mg/ml kanamycin in 96-well assay microplates (U-bottom, REF-353910 from BD Biosciences, San Jose, Calif., USA).” left out, “Cytometry data was gated by forward and side scatter.” left out

[1] = tested on: G415H TynA with wild-type FeaR; type: cell-based, E. coli MG1655; settings: G415H
Experimental: (§3) Flow cytometry was performed as previously described. […] Cytometry data was gated by forward and side scatter.

G494S TynA and A81S FeaR = type: cell-based, E. coli MG1655; settings: G494S TynA and A81S FeaR; 5 h and 24 h; FIG. 23A-B
Experimental: as §3

[2] = tested on: G494S TynA with A81T FeaR; type: cell-based, E. coli MG1655; settings: G494S*
Experimental: as §3

[3] = tested on: G494S TynA with wild-type FeaR; type: cell-based, E. coli MG1655; settings: G494S TynA, wild-type FeaR; 5 h and 24 h; FIG. 18A-B
Experimental: as §3

[4] = tested on: wild-type TynA with A81T FeaR; type: cell-based, E. coli MG1655; settings: wild-type TynA; 1 mM, 24 h; FIG. 21
Experimental: as §3

[5] = tested on: wild-type TynA with L108T FeaR; type: cell-based, E. coli MG1655; settings: L108T FeaR; 24 h; FIG. 28B
Experimental: as §3

[6] = tested on: wild-type TynA with M83Q FeaR; type: cell-based, E. coli MG1655; settings: M83Q FeaR; 24 h; FIG. 28A
Experimental: as §3

[7] = tested on: wild-type TynA with W110C FeaR; type: cell-based, E. coli MG1655; settings: W110C FeaR; 24 h; FIG. 28D
Experimental: as §3

[8] = tested on: wild-type TynA with W110S FeaR; type: cell-based, E. coli MG1655; settings: W110S FeaR; 24 h; FIG. 28C
Experimental: as §3

[9] = tested on: wild-type TynA and A81L FeaR; test: microbe, parasite or virus in culture; type: cell-based, E. coli MG1655; settings: A81L FeaR
Experimental: as §3

[10] = tested on: wild-type TynA with A81P FeaR; test: microbe, parasite or virus in culture; type: cell-based, E. coli MG1655; settings: A81P FeaR; 5 h and 24 h; FIG. 25A-B
Experimental: as §3

[11] = tested on: TynA-KP with FeaR-KA I109N; test: GFP fluorescence from PtynA-MG with TynA-KP and FeaR-KA I109N; type: cell-based, Klebsiella aerogenes
Excerpt: FIG. 32. […] Sensor system with PtynA-MG, TynA-KP and FeaR-KA was chosen as the wild type (WT) for further directed evolution. TynA-KP was employed to reduce the possible interference from DA during evolution processes. Values and error bars are the average and standard deviation of biological triplicate, respectively.
FIG. 33A-FIG. 33B. […] The expression of PtynA-MG was regulated by the TynA-KP with FeaR-KA I109N mutant. Points represent experimental data while lines represent the fitted curves. […] Values and error bars are the average and standard deviation of biological triplicate, respectively.

With `NCCc1ccc(O)c(O)c1` [Dopamine, dopamine] the “fold increase in GFP expression” value (TynA-FeaR system; 0.5 mM, in the presence of TynA, FIG. 3C) was 410 fold, the EC50 (TynA-FeaR system; Escherichia coli, 5 h) was 28 µM and the EC50 (TynA-FeaR system; Escherichia coli, 24 h) was 68 µM. The fold induction at 1250 µM (TynA-FeaR system; Escherichia coli, read-out: fold induction of the reporter) was ~900, the Fmax (TynA-FeaR system; FIG. 3D, 24 h induction) was 881 and the Fmin (TynA-FeaR system; FIG. 3D, 24 h induction) was 0.1. The “n (Hill coefficient)” value (TynA-FeaR system; FIG. 3D, 24 h induction) was 3, the Fmax (TynA-FeaR system; FIG. 14, 5 h induction) was 258 and the Fmin (TynA-FeaR system; FIG. 14, 5 h induction) was 4.4. For the same compound, the “n (Hill coefficient)” value (TynA-FeaR system; FIG. 14, 5 h induction) was 1.5, the “induction of PtynA” value (FeaR (TynA inactivated)) was “eliminated” and the response ([1]; 5 h, FIG. 17B) was “lack of response”. The response ([1]; 24 h, FIG. 4D, listed as DA) was “lack of response; also recorded: minimal response”, the response (G494S TynA and A81S FeaR) was “lack of response” and the response ([2]; 5 h, FIG. 17A) was “lack of response”. For the same compound, the response ([2]; 24 h, FIG. 4C) was “lack of response”, the response [3] was “lack of response” and the “effect of the A81T FeaR mutation on the response of the sensor” value [4] was “significantly reduced”. For the same compound, the response [5] was “lack of response”, the response [6] was “lack of response” and the response [7] was “lack of response”. The response [8] was “lack of response”, the response ([9]; 5 h, FIG. 24) was “lack of response” and the response ([9]; 24 h, FIG. 5C) was “lack of response”. For the same compound, the response [10] was “lack of response”, the response ([11]; FeaR-KA I109N, 5 h and 24 h, FIG. 33A-B) was “lack of response” and the induction of fluorescence ([11]; I109N variant, 0.5 mM, 24 h, FIG. 32) was “not”.
